From patent US11186551B2, “Composition of scalable thyrointegrin antagonists with improved retention in tumors” (NanoPharmaceuticals, LLC, priority 2020, dated 2021)
Entries after “also recorded” stand apart in the source; their conditions may differ.

What was measured:
U87-luc xenografts = experiment: GBM xenograft efficacy: tumor weight and luminescent signal intensity; format: in vivo, Nude mice; conditions: for Tumor weight after 3 weeks of treatment: control approximately 600 mg; for Luminescent signal intensity after 3 weeks of treatment: control approximately 600,000p/s
Protocol: The efficacy of these compounds/compositions with respect to GBM tumors will now be described with reference to FIGS. 30-33. The study protocol is as follows: Nude mice having U87-luc xenografts were treated with varying dosages of Compound 2 (fb-PMT) for 3 weeks. Efficacy was determined by tumor weight and luminescent signal intensity compared with a control group. Further, treatment efficacy was also evaluated in comparison with known potential treatment Cilengitide. Efficacy was also determined again after an additional 3 week period with no additional treatment.

[1] = tested on: angiogenesis induced by bFGF, VEGF, HGF; experiment: Anti-angiogenic effect in CAM Models in the presence of growth factors; format: in vivo
From the text: In addition to good initial uptake, the disclosed compounds also have good anti-angiogenic effect. […] Specifically, Compound 2 is effective at reducing the percentage of angiogenesis present in CAM Models, when administered in the presence of the following growth factors: bFGF, VEGF, VEGF+bFGF, and bFGF+VEGF+HGF.
This broad spectrum anti-angiogenic effect is in contrast to existing therapeutic compounds/compositions such as AVASTIN® (bevacizumab).

[2] = mouse, in vivo, sc, 10 mg/kg
Protocol: Concentrations are shown as recorded 3 h following administration.
Each group contained 4 mice.

[3] = mouse, in vivo, sc, 10 mg/kg; remark: listed apart in the source
Protocol: Again, a single subcutaneous injection was used in mice. The administered dose was 10 mg/Kg.

[4] = cynomolgus monkey, in vivo, sc, 15 mg/kg
[5] = Compound 2 6 mg/kg, Cilengitide 75 mg/kg
[6] = Compound 2 6 mg/kg, Cilengitide 75 mg/kg, control approximately 750 mg
[7] = Compound 2 6 mg/kg, Cilengitide 75 mg/kg, control over 800,000p/s

Compound: CC(C)[C@H]1C(=O)N[C@@H](CCCN=C(N)N)C(=O)NCC(=O)N[C@@H](CC(=O)O)C(=O)N[C@H](Cc2ccccc2)C(=O)N1C [Cilengitide, reference compound]
- Tumor weight after 3 weeks of treatment (U87-luc xenografts; [5]): approximately 300 mg
- Tumor weight after 3 weeks of treatment followed by 3 weeks without treatment (U87-luc xenografts; [6]): over 400 mg
- Luminescent signal intensity after 3 weeks of treatment (U87-luc xenografts; [5]): approximately 300,000 p/s
- Luminescent signal intensity after 3 weeks of treatment followed by 3 weeks without treatment (U87-luc xenografts; [7]): over 500,000 p/s

Compound: bevacizumab [AVASTIN®]
- Anti-angiogenic effect in CAM Model against VEGF alone ([1]; VEGF alone): primarily effective against VEGF alone
- Percent of angiogenesis in CAM Model for bFGF or HGF ([1]; bFGF or HGF): does not meaningfully reduce
- Anti-angiogenic effect in CAM Model, VEGF combined with other growth factors ([1]; bFGF or bFGF and HGF present along with VEGF): does not demonstrate good effect

Compound: fluorobenzyl conjugated to triazole tetrac by polyethylene glycol [Compound 2]
- Percentage of angiogenesis in CAM Model ([1]; 1.0 μg, growth factors bFGF, VEGF, VEGF+bFGF, bFGF+VEGF+HGF): only slightly above baseline; also recorded: inhibition of angiogenesis against all three growth factors, both alone and in combination
- Tumor weight after 3 weeks of treatment (U87-luc xenografts; [5]): under 50 mg
- Tumor weight after 3 weeks of treatment followed by 3 weeks without treatment (U87-luc xenografts; [6]): further reduction
- Luminescent signal intensity after 3 weeks of treatment (U87-luc xenografts; [5]): negligible levels
- Luminescent signal intensity after 3 weeks of treatment followed by 3 weeks without treatment (U87-luc xenografts; [7]): even further reduction
- Tumor weight after 3 weeks of treatment (U87-luc xenografts; all doses 1, 3, 6 and 10 mg/kg): under 100 mg
- Tumor weight after 3 weeks of treatment followed by 3 weeks off treatment (U87-luc xenografts; all doses 1, 3, 6 and 10 mg/kg, control approximately 750 mg): further and additional reduction
- Luminescent signal intensity after 3 weeks of treatment (U87-luc xenografts; all doses 1, 3, 6 and 10 mg/kg): under 100,000 p/s
- Luminescent signal intensity after 3 weeks of treatment followed by 3 weeks off treatment (U87-luc xenografts; all doses 1, 3, 6 and 10 mg/kg, control over 800,000p/s): further and additional reduction
- Average Brain Concentration (ng/g), 3 hour [2]: 228 ng/g
- Brain tissue uptake and retention over time [3]: uptake and retention over a 24 hour period
- Time of plasma concentration peak [4]: 1 to 4 h

Compound: di-tbutylbenzyl conjugated to triazole tetrac by polyethylene glycol [Compound 4]
- Average Brain Concentration (ng/g), 3 hour [2]: 922 ng/g
